# Patent US12679878B2, “CRF2 receptor agonists and their use in therapy” (SANOFI, priority 2020, dated 2026)
# Starred links: 1 amine or outer side, 2 acyl side, 3 side chain; linkers in the order of their positions; H or OH if unused. Non-standard residues stand in square brackets, D forms with d. Residues, ends and D or L forms follow the SMILES beside them. Groups on a side chain read outwards from the residue. *: point of attachment. C20 diacid = O=C(O)CCCCCCCCCCCCCCCCCCC(=O)*; C18 diacid = O=C(O)CCCCCCCCCCCCCCCCC(=O)*; γGlu = O=C(O)[C@H](CCC(=O)[*:2])N[*:1]; AEEA = NCCOCCOCC(=O)O; Aib = CC(C)(N)C(=O)O
# Target: T1, human CRF2α receptor (Homo sapiens, UniProt Q13324)
# T1 construct: expressed in transfected cells; host or cells: TeloHEAC
# T1 sequence (Q13324 1-411): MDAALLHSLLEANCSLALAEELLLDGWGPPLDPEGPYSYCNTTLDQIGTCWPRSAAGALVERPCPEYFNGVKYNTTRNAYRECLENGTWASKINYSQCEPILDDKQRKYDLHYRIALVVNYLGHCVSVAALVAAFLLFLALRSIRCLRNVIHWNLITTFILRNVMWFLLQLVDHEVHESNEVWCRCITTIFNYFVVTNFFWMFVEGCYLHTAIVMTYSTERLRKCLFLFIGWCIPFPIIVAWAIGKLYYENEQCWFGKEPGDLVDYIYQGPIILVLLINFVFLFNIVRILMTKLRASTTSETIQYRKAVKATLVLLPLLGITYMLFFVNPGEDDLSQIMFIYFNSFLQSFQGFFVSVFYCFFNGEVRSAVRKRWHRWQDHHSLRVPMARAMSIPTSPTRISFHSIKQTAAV
# Experiment: cAMP agonism at human CRF2 α receptor in TeloHEAC cells (Example 7)
# Assay type: cell-based
# Conditions: cAMP HTRF, TeloHEAC cells stably expressing human CRF2 α, 0% HSA; read-out: EC50 [nM], 0% HSA
# Outline: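 Steps: thaw and wash cells; suspend in 1×HBSS, 20 mM HEPES, 0 or 0.1% HSA, 2 mM IBMX; add compound, 30 min RT; lyse with HTRF reagents, 1 h; read 665/620 nm. EC50 calculated, E% versus 1000 nM UCN2.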
row,Compound,EC50 [nM]
1,CC[C@H](C)[C@H](NC(=O)[C@H](CCC(N)=O)NC(=O)[C@H](CCCCNC(=O)COCCOCCNC(=O)COCCOCCNC(=O)CC[C@H](NC(=O)CCCCCCCCCCCCCCCCCCC(=O)O)C(=O)O)NC(=O)[C@H](CC(C)C)NC(=O)CNC(=O)[C@@H](NC(=O)[C@@H]1CCCN1C(=O)[C@@H](NC(=O)[C@H](CC(=O)O)NC(=O)[C@H](CC(C)C)NC(=O)[C@H](CO)NC(=O)[C@H](CC(C)C)NC(=O)[C@@H](NC(=O)[C@@H](N)Cc1ccccc1)[C@@H](C)O)C(C)C)[C@@H](C)CC)C(=O)N[C@@H](CC(C)C)C(=O)N[C@@H](CC(C)C)C(=O)N[C@@H](CCCCN)C(=O)N[C@@H](CCC(N)=O)C(=O)N[C@@H](CCC(N)=O)C(=O)N[C@@H](CCCCN)C(=O)N[C@@H](CCC(N)=O)C(=O)N[C@@H](CCCCN)C(=O)N[C@@H](CCCCN)C(=O)N[C@@H](CCC(=O)O)C(=O)N[C@@H](CCCNC(=N)N)C(=O)N[C@@H](CCC(N)=O)C(=O)N[C@@H](CCCCN)C(=O)N[C@@H](C)C(=O)N[C@@H](CCC(=O)O)C(=O)N[C@H](C(=O)N[C@@H](CC(N)=O)C(=O)N[C@H](C(=O)N[C@@H](CCC(N)=O)C(=O)N[C@@H](CC(C)C)C(=O)N[C@@H](CC(C)C)C(=O)N[C@@H](CCC(=O)O)C(=O)N[C@@H](CCCNC(=N)N)C(=O)N[C@H](C(N)=O)C(C)C)C(C)C)[C@@H](C)O [compound 66] (H-FTLSLDVPIGLK([AEEA-AEEA-γGlu-C20 diacid])QILLKQQKQKKERQKAETNVQLLERV-NH2; N-terminus assumed),25.4
2,CC[C@H](C)[C@H](N)C(=O)N[C@H](C(=O)N[C@@H](CC(C)C)C(=O)N[C@@H](CO)C(=O)N[C@@H](CC(C)C)C(=O)N[C@@H](CC(=O)O)C(=O)N[C@H](C(=O)N1CCC[C@H]1C(=O)N[C@H](C(=O)N[C@@H](CCCCN)C(=O)N[C@@H](CC(C)C)C(=O)N[C@@H](CCCCNC(=O)COCCOCCNC(=O)COCCOCCNC(=O)CC[C@H](NC(=O)CCCCCCCCCCCCCCCCC(=O)O)C(=O)O)C(=O)N[C@@H](CCCCN)C(=O)NC(C)(C)C(=O)N[C@@H](CC(C)C)C(=O)N[C@@H](CC(C)C)C(=O)N[C@@H](CCC(=O)O)C(=O)N[C@@H](CCC(N)=O)C(=O)N[C@@H](CCC(=O)O)C(=O)N[C@@H](CCCNC(=N)N)C(=O)N[C@@H](CCC(N)=O)C(=O)N[C@@H](CCCCN)C(=O)N[C@@H](CCCCN)C(=O)N[C@@H](CCC(N)=O)C(=O)N[C@@H](CCCNC(=N)N)C(=O)N[C@@H](CCC(=O)O)C(=O)N[C@@H](CCC(N)=O)C(=O)N[C@@H](C)C(=O)N[C@@H](CCC(=O)O)C(=O)N[C@H](C(=O)N[C@@H](CC(N)=O)C(=O)NC(C)(C)C(=O)N[C@@H](CCC(N)=O)C(=O)N[C@H](C(=O)N[C@@H](CC(C)C)C(=O)N[C@@H](C)C(=O)N[C@@H](CCC(N)=O)C(=O)N[C@H](C(N)=O)C(C)C)[C@@H](C)CC)[C@@H](C)O)[C@@H](C)CC)C(C)C)C(C)C [compound 71] (H-IVLSLDVPIKLK([AEEA-AEEA-γGlu-C18 diacid])K[Aib]LLEQERQKKQREQAETN[Aib]QILAQV-NH2; N-terminus assumed),3.15
3,CC[C@H](C)[C@H](N)C(=O)N[C@H](C(=O)N[C@@H](CC(C)C)C(=O)N[C@@H](CO)C(=O)N[C@@H](CC(C)C)C(=O)N[C@@H](CC(=O)O)C(=O)N[C@H](C(=O)N1CCC[C@H]1C(=O)N[C@H](C(=O)N[C@@H](CCCCN)C(=O)N[C@@H](CC(C)C)C(=O)N[C@@H](CCCCNC(=O)COCCOCCNC(=O)COCCOCCNC(=O)CC[C@H](NC(=O)CCCCCCCCCCCCCCCCC(=O)O)C(=O)O)C(=O)N[C@@H](CCC(N)=O)C(=O)N[C@H](C(=O)N[C@@H](CC(C)C)C(=O)N[C@@H](CC(C)C)C(=O)N[C@@H](CCC(=O)O)C(=O)N[C@@H](CCC(N)=O)C(=O)N[C@@H](CCC(=O)O)C(=O)N[C@@H](CCCNC(=N)N)C(=O)N[C@@H](CCC(N)=O)C(=O)N[C@@H](CCCCN)C(=O)N[C@@H](CCCCN)C(=O)N[C@@H](CCC(N)=O)C(=O)N[C@@H](CCCNC(=N)N)C(=O)N[C@@H](CCC(N)=O)C(=O)N[C@@H](CCCCN)C(=O)N[C@@H](C)C(=O)N[C@@H](CCC(=O)O)C(=O)N[C@H](C(=O)N[C@@H](CC(N)=O)C(=O)NC(C)(C)C(=O)N[C@@H](CCC(N)=O)C(=O)N[C@H](C(=O)N[C@@H](CC(C)C)C(=O)N[C@@H](C)C(=O)N[C@@H](CCC(N)=O)C(=O)N[C@H](C(N)=O)C(C)C)[C@@H](C)CC)[C@@H](C)O)[C@@H](C)CC)[C@@H](C)CC)C(C)C)C(C)C [compound 73] (H-IVLSLDVPIKLK([AEEA-AEEA-γGlu-C18 diacid])QILLEQERQKKQRQKAETN[Aib]QILAQV-NH2),2.6
4,CC[C@H](C)[C@H](N)C(=O)N[C@H](C(=O)N[C@@H](CC(C)C)C(=O)N[C@@H](CO)C(=O)N[C@@H](CC(C)C)C(=O)N[C@@H](CC(=O)O)C(=O)N[C@H](C(=O)N1CCC[C@H]1C(=O)N[C@H](C(=O)N[C@@H](CCCCN)C(=O)N[C@@H](CC(C)C)C(=O)N[C@@H](CCCCNC(=O)COCCOCCNC(=O)COCCOCCNC(=O)CC[C@H](NC(=O)CCCCCCCCCCCCCCCCC(=O)O)C(=O)O)C(=O)N[C@@H](CCC(N)=O)C(=O)N[C@H](C(=O)N[C@@H](CC(C)C)C(=O)N[C@@H](CC(C)C)C(=O)N[C@@H](CCC(=O)O)C(=O)N[C@@H](CCC(N)=O)C(=O)N[C@@H](CCC(=O)O)C(=O)N[C@@H](CCCNC(=N)N)C(=O)N[C@@H](CCC(N)=O)C(=O)N[C@@H](CCCCN)C(=O)N[C@@H](CCCCN)C(=O)N[C@@H](CCC(N)=O)C(=O)N[C@@H](CCCNC(=N)N)C(=O)N[C@@H](CCC(=O)O)C(=O)N[C@@H](CCC(N)=O)C(=O)N[C@@H](C)C(=O)N[C@@H](CCC(=O)O)C(=O)N[C@H](C(=O)N[C@@H](CC(N)=O)C(=O)NC(C)(C)C(=O)N[C@@H](CCC(N)=O)C(=O)N[C@H](C(=O)N[C@@H](CC(C)C)C(=O)N[C@@H](CCC(=O)O)C(=O)N[C@@H](CCCNC(=N)N)C(=O)N[C@H](C(N)=O)C(C)C)[C@@H](C)CC)[C@@H](C)O)[C@@H](C)CC)[C@@H](C)CC)C(C)C)C(C)C [compound 74] (H-IVLSLDVPIKLK([AEEA-AEEA-γGlu-C18 diacid])QILLEQERQKKQREQAETN[Aib]QILERV-NH2),2.12
5,CC[C@H](C)[C@H](N)C(=O)N[C@H](C(=O)N[C@@H](CC(C)C)C(=O)N[C@@H](CO)C(=O)N[C@@H](CC(C)C)C(=O)N[C@@H](CC(=O)O)C(=O)N[C@H](C(=O)N1CCC[C@H]1C(=O)N[C@H](C(=O)NCC(=O)N[C@@H](CC(C)C)C(=O)N[C@@H](CCCCNC(=O)COCCOCCNC(=O)COCCOCCNC(=O)CC[C@H](NC(=O)CCCCCCCCCCCCCCCCC(=O)O)C(=O)O)C(=O)N[C@@H](CCC(N)=O)C(=O)N[C@H](C(=O)N[C@@H](CC(C)C)C(=O)N[C@@H](CC(C)C)C(=O)N[C@@H](CCC(=O)O)C(=O)N[C@@H](CCC(N)=O)C(=O)N[C@@H](CCC(=O)O)C(=O)N[C@@H](CCCNC(=N)N)C(=O)N[C@@H](CCC(N)=O)C(=O)N[C@@H](CCCCN)C(=O)N[C@@H](CCCCN)C(=O)N[C@@H](CCC(N)=O)C(=O)N[C@@H](CCCNC(=N)N)C(=O)N[C@@H](CCC(N)=O)C(=O)N[C@@H](CCC(N)=O)C(=O)N[C@@H](C)C(=O)N[C@@H](CCC(=O)O)C(=O)N[C@H](C(=O)N[C@@H](CC(N)=O)C(=O)NC(C)(C)C(=O)N[C@@H](CCC(N)=O)C(=O)N[C@H](C(=O)N[C@@H](CC(C)C)C(=O)N[C@@H](C)C(=O)N[C@@H](CCC(N)=O)C(=O)N[C@H](C(N)=O)C(C)C)[C@@H](C)CC)[C@@H](C)O)[C@@H](C)CC)[C@@H](C)CC)C(C)C)C(C)C [compound 76] (H-IVLSLDVPIGLK([AEEA-AEEA-γGlu-C18 diacid])QILLEQERQKKQRQQAETN[Aib]QILAQV-NH2),13.4
6,CC[C@H](C)[C@H](N)C(=O)N[C@H](C(=O)N[C@@H](CC(C)C)C(=O)N[C@@H](CO)C(=O)N[C@@H](CC(C)C)C(=O)N[C@@H](CC(=O)O)C(=O)N[C@H](C(=O)N1CCC[C@H]1C(=O)N[C@H](C(=O)N[C@@H](CCCCN)C(=O)N[C@@H](CC(C)C)C(=O)N[C@@H](CCCCNC(=O)COCCOCCNC(=O)COCCOCCNC(=O)CC[C@H](NC(=O)CCCCCCCCCCCCCCCCC(=O)O)C(=O)O)C(=O)N[C@@H](CCC(N)=O)C(=O)N[C@H](C(=O)N[C@@H](CC(C)C)C(=O)N[C@@H](CC(C)C)C(=O)N[C@@H](CCC(=O)O)C(=O)N[C@@H](CCC(N)=O)C(=O)N[C@@H](CCC(=O)O)C(=O)N[C@@H](CCCNC(=N)N)C(=O)N[C@@H](CCC(N)=O)C(=O)N[C@@H](CCCCN)C(=O)N[C@@H](CCCCN)C(=O)N[C@@H](CCC(N)=O)C(=O)N[C@@H](CCCNC(=N)N)C(=O)N[C@@H](CCC(=O)O)C(=O)N[C@@H](CCC(N)=O)C(=O)N[C@@H](C)C(=O)N[C@@H](CCC(=O)O)C(=O)N[C@H](C(=O)N[C@@H](CC(N)=O)C(=O)NC(C)(C)C(=O)N[C@@H](CCC(N)=O)C(=O)N[C@H](C(=O)N[C@@H](CC(C)C)C(=O)N[C@@H](C)C(=O)N[C@@H](CCC(N)=O)C(=O)N[C@H](C(N)=O)C(C)C)[C@@H](C)CC)[C@@H](C)O)[C@@H](C)CC)[C@@H](C)O)C(C)C)C(C)C [compound 78] (H-IVLSLDVPTKLK([AEEA-AEEA-γGlu-C18 diacid])QILLEQERQKKQREQAETN[Aib]QILAQV-NH2),10.6
